This note sets out measurements from PubChem BioAssay AID602463 (NMMLSC, 2012).

The subject of the data set is DS-PAMPA, 20% ACN buffer, UV absorbance, 30 min. The data set is described as follows: artificial-membrane permeation in acetonitrile buffer – biophysical, double-sink PAMPA, 20% ACN buffer, pH 5.0/6.2/7.4, ADME assay for GPR30 and estrogen receptor ligands, late-stage follow-up (AID 602463). To be noted: stronger effect = higher value. In general terms: In PAMPA a lipid-coated filter parts donor from acceptor wells.

On to `CC(=O)c1ccc2c(c1)[C@@H]1C=CC[C@@H]1[C@H](c1cc3c(cc1Br)OCO3)N2`, for which the permeability pH 7.4 is 316 10^-6 cm/s. The permeability pH 5.0 (measured here: PAMPA permeability at pH 5.0) was 349 10^-6 cm/s. For the same compound, the permeability pH 6.2 (measured here: PAMPA permeability at pH 6.2) is 565 10^-6 cm/s.
